From PubChem BioAssay (NCI)
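Five compound concentrations were applied to cells in 96-well plates for 48 hours; endpoints were derived by simple linear interpolation of the resulting dose-response curve. Abbreviation: GI50, concentration required for 50% inhibition of growth. At the TGI there is no net growth.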

Key:
Assay in all cases: growth of human tumour cells (NCI), 48 h
[1] = test system: MCF7 breast
[2] = test system: MDA-N
[3] = test system: HOP-18 NSCLC
[4] = test system: M19-MEL melanoma
[5] = test system: RXF-631 renal
[6] = test system: XF 498 CNS
[7] = test system: SNB-78 CNS
[8] = test system: DLD-1 colon
[9] = test system: DMS 114 small cell lung

In the case of CC1CCC(C#N)(NOC2=NCCN2)CC1 (configuration not stated), the GI50 [1] is reported as 55.6 µM and the TGI [1] is reported as greater than 100 µM.

O=C(Nc1ccc([N+](=O)[O-])cc1)c1cc2ccccc2cc1O gave a GI50 [1] of 1.32 µM and a TGI [1] of 11.3 µM.

Molecule c1cc(C2N3CCCN2CC3)ccn1 (configuration not stated) has a TGI [2] greater than 100 µM and a TGI [1] greater than 100 µM.

COc1cccc2cc(N(C)c3nc(C)nc4ccsc34)ccc12 gave a GI50 [1] of less than 0.01 µM and a TGI [1] of 16.3 µM.

In the case of Cc1sc2c(c1C)C(c1ccc(Cl)cc1)=N[C@@H](CC(=O)Nc1ccc(O)cc1)c1nnc(C)n1-2, the GI50 [1] is reported as 0.0553 µM and the TGI [1] is reported as 18.2 µM.

In the case of CCCCCCCCCCC(CN(CC)CC)C(O)c1ccccc1 (configuration not stated), the GI50 [1] is reported as 1.63 µM and the TGI [1] is reported as 3.15 µM.

In the case of CN(C)C(=S)/N=c1\ssc(=S)n1Cc1ccccn1, the TGI [3] is reported as greater than 100 µM, the TGI [4] is reported as greater than 100 µM and the TGI [5] is reported as greater than 100 µM. The TGI [6] was 34.3 µM, the TGI [7] was greater than 100 µM and the TGI [8] was greater than 100 µM.

Molecule COc1ccc(NCc2c(O)ccc3ccccc23)cc1 has a TGI [2] greater than 100 µM and a TGI [1] greater than 100 µM.

COc1cc(CCC(=O)NS(=O)(=O)c2ccccc2)cc(OC)c1OC showed a TGI [3] greater than 100 µM, a TGI [9] greater than 100 µM and a TGI [6] greater than 100 µM. It also gave a TGI [7] greater than 100 µM and a TGI [8] greater than 100 µM.

Work on COc1ccc(-c2cc3nccn3c(Nc3ncccc3C(N)=O)n2)cc1OC yielded a GI50 [1] of 1.87 µM and a TGI [1] greater than 100 µM.

Molecule O=C(Cc1ccccc1)NN1C(=O)C(Cl)C1c1ccccc1 (configuration not stated) has a TGI [3] greater than 100 µM, a TGI [4] greater than 100 µM and a TGI [9] greater than 100 µM. The TGI [6] was 45.2 µM, the TGI [7] was greater than 100 µM and the TGI [8] was greater than 100 µM.

For CCCCCCCCCCCCCCCCCCOCC1(COP(=O)([O-])OCC[N+](C)(C)C)CCCO1 (configuration not stated), the TGI [3] was 10.9 µM, the TGI [4] was 10.8 µM and the TGI [9] was 18.1 µM. The TGI [6] was 20.5 µM, the TGI [7] was 29.5 µM and the TGI [8] was 12.5 µM.

O=C(Cc1nc2ccccc2s1)C(=O)Nc1ccc(Cl)cc1Cl showed a TGI [4] greater than 100 µM, a TGI [5] greater than 100 µM and a TGI [6] greater than 100 µM. For the same molecule, the TGI [7] was greater than 100 µM and the TGI [8] was greater than 100 µM.

COc1ccc(Cn2cc3c(c2-c2ccccc2)CCc2cncnc2-3)cc1 gave a GI50 [1] of 4.66 µM and a TGI [1] of 18.9 µM.

For c1cc(-c2cnn3nc(N4CCOCC4)ccc23)nc(NC2CC2)n1, the GI50 [1] was 5.38 µM and the TGI [1] was greater than 25 µM.

C=C(C)C(=O)N1c2ccc(OC)cc2CC1C(=O)OCC (configuration not stated) was tested, and the TGI [2] was greater than 100 µM and the TGI [1] was greater than 100 µM.

For CCCCCCCCCCCCOC(=S)NC, the TGI [3] was 50.1 µM, the TGI [9] was 37.5 µM and the TGI [6] was 35.7 µM. For the same molecule, the TGI [7] was 61.8 µM and the TGI [8] was 34.3 µM.

CSc1ccc(C(=O)/C=C/c2ccc(F)cc2)cc1 showed a GI50 [1] of 28.5 µM and a TGI [1] of 70 µM.

C=C1C(=O)O[C@H]2[C@H]1CC/C(COC(=O)NCc1cccc(OC)c1)=C\CC[C@@]1(C)O[C@@H]21 was tested, and the GI50 [1] was 2.36 µM and the TGI [1] was 8.97 µM.

Work on COc1cc(C(=O)/C=C/c2c(-c3cccs3)nc3ccccn23)cc(OC)c1OC yielded a GI50 [1] of 1.12 µM and a TGI [1] of 15.4 µM.

In the case of COc1ccc2nc(C3=CN(C4OC(CO)C(O)C(O)C4O)C4C=CC=CC34)sc2c1 (configuration not stated), the GI50 [1] is reported as greater than 100 µM and the TGI [1] is reported as greater than 100 µM.

Molecule Oc1oc(-c2ccccc2)nc1/C=C1/C=NN=N1 has a TGI [2] greater than 100 µM and a TGI [1] greater than 100 µM.

COC(=O)C1=C2CO[C@@H]3C[C@H]4C(C)(C)CCC[C@]4(C)C(=CC1)[C@]23C was tested, and the GI50 [1] was 44 µM and the TGI [1] was greater than 100 µM.

C/C(CC(=O)Nc1ccc(NC(=O)/C(C)=N/NS(=O)(=O)c2ccc(C)cc2)cc1)=N\NS(=O)(=O)c1ccc(C)cc1 was tested, and the TGI [4] was greater than 100 µM, the TGI [9] was greater than 100 µM and the TGI [7] was greater than 100 µM. It also gave a TGI [8] greater than 100 µM.

With C=C(CN(CCN1CCOCC1)CC(=C)c1ccc(C(=O)Nc2ccccc2N)cc1)c1ccc(C(=O)Nc2ccccc2N)cc1 the GI50 [1] was 11 µM and the TGI [1] was greater than 50 µM.

COc1cc(C(=C2SCCS2)c2nccc3cc(OC)c(OC)cc23)c([N+](=O)[O-])cc1OC was tested, and the TGI [3] was greater than 100 µM, the TGI [4] was greater than 100 µM and the TGI [9] was greater than 100 µM. For the same molecule, the TGI [6] was greater than 100 µM, the TGI [7] was greater than 100 µM and the TGI [8] was greater than 100 µM.

NCCCn1c2c(c3ccc([N+](=O)[O-])cc3c1=O)C(=O)c1cc(Cl)ccc1-2 gave a GI50 [1] of less than 0.01 µM and a TGI [1] of 0.141 µM.

With CN(C)NC(=S)NC12CC3CC(CC(C3)C1)C2 the TGI [3] was greater than 100 µM, the TGI [4] was greater than 100 µM and the TGI [9] was greater than 100 µM. For the same molecule, the TGI [6] was greater than 100 µM, the TGI [7] was greater than 100 µM and the TGI [8] was greater than 100 µM.
